Laboratory results: patent US6608085B1, “4-quinolinemethanol derivatives as purine receptor antagonists (II)” (Vernalis Research Limited, priority 1998, dated 2003)
Where a name gives a salt, the structure may show the parent alone.

Assays:
[1] = target: human adenosine A2A receptors (Homo sapiens, UniProt P29274); test: Binding affinities at hA2A receptors, displacement of [3H]-CGS 21680; conditions: displacement of radioligand [3H]-CGS 21680, in vitro
cataleptic responses = conditions: cited from earlier work
Parkinsonian patients = conditions: cited from earlier work
[2] = test system: haloperidol-induced deficits in locomotor activity in mice; test: Haloperidol-induced hypolocomotion model; type: in vivo; conditions: 10 mg/kg intraperitoneally, haloperidol 0.2 mg/kg
Text: This approach is also considered a valid method for screening drugs with potential antiparkinsonian effects. Thus, the ability of novel adenosine antagonists to block haloperidol-induced deficits in locomotor activity in mice can be used to assess both in vivo and potential antiparkinsonian efficacy.
Female TO mice (25-30 g) obtained from TUCK, UK, are used for all experiments. Animals are housed in groups of 8 [cage size—40 (width)×40 (length)×20 (height)cm] under 12 hr light/dark cycle (lights on 08:00 hr), in a temperature (20±2° C.) and humidity (55±15%) controlled environment. Animals have free access to food and water, and are allowed at least 7 days to acclimatize after delivery before experimental use.
Liquid injectable haloperidol (1 ml Serenance ampoules from Baker Norton, Harlow, Essex, each containing haloperidol BP 5 mg, batch #P424) are diluted to a final concentration of 0.02 mg/ml using saline. Novel test compounds are typically prepared as aqueous suspensions in 8% Tween. All compounds are administered intraperitoneally in a volume of 10 ml/kg.
1.5 hours before testing, mice are administered 0.2 mg/kg haloperidol, a dose that reduces baseline locomotor activity by at least 50%. […] Horizontal locomotor activity is determined by placing the cages within a frame containing a 3×6 array of photocells linked to a computer, which tabulates beam breaks. […]

Chain of human adenosine A2A receptors (P29274 whole entry): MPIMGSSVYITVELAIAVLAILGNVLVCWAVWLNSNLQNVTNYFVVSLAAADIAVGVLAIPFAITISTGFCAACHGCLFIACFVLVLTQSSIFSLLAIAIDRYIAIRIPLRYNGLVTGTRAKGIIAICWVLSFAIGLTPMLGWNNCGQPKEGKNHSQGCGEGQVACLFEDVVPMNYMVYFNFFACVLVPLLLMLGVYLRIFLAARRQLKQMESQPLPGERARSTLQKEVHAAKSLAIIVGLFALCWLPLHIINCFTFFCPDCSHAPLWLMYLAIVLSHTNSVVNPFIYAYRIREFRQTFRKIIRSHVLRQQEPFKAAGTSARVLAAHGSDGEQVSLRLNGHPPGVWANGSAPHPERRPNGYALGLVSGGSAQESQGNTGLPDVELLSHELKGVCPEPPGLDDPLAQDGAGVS

| SMILES | Ki [1] [nM] | also measured |
| --- | --- | --- |
| CC(=O)N1CCCC[C@H]1[C@H](O)c1cc(C(F)(F)F)nc2c(C(F)(F)F)cccc12 [Example 5, (11R, 2′S)-α-(1-Acetyl-2-piperidinyl)-2,8-bis(trifluoromethyl)-4-quinolinemethanol] | 1740 | – |
| O[C@@H](c1cc(C(F)(F)F)nc2c(C(F)(F)F)cccc12)[C@@H]1CCCN1 (as salt: hydrochloride) [Example 45, (11S, 2′S)-α-(2-Pyrrolidinyl)-2,8-bis(trifluoromethyl)-4-quinolinemethanol Hydrochloride] | – | melting point: 246 °C (dec.) |
| COc1cc([C@@H](O)[C@@H]2CCCCN2)c2cccc(C)c2n1 (racemic) [Example 48, (11R*, 2′S*)-2-Methoxy-8-methyl-α-(2-piperidinyl)-4-quinolinemethanol (Racemic)] | 1100 | – |
| CC(C)C[C@H](N)C(O)c1cc(C(F)(F)F)nc2c(C(F)(F)F)cccc12 (mixture of isomers) [Example 34, α-(-Amino-3-methylbutyl)-2,8-bis(trifluoromethyl)-4-quinolinemethanol] | 1210 | – |
| CC(C)(C)OC(=O)N1CCC[C@H]1[C@H](O)c1cc(C(F)(F)F)nc2c(C(F)(F)F)cccc12 [Example 43, (11R, 2′S)-α-(1-tert-Butoxycarbonyl-2-pyrrolidinyl)-2,8-bis(trifluoromethyl)-4-quinolinemethanol] | 2720 | – |
| O[C@H](c1cc(C(F)(F)F)nc2c(C(F)(F)F)cccc12)[C@@H]1CCCCN1Cc1ccccc1 [Example 9, (11R, 2′S)-α-(1-Benzyl-2-piperidinyl)-2,8-bis(trifluoromethyl)-4-quinolinemethanol] | 182 | – |
| CCCn1c(=O)c2c(nc(/C=C/c3ccc(OC)c(OC)c3)n2C)n(CCC)c1=O [KF 17837, (E)-8-(3,4-dimethoxystyryl)-1,3-dipropyl-7-methylxanthine] | – | anticataleptic effects of a subthreshold dose of L-DOPA plus benserazide (cataleptic responses; in vivo): potentiated; catalepsy induced by haloperidol and reserpine (cataleptic responses; in vivo): reduced; cataleptic responses induced by intracerebroventricular CGS 21680 (cataleptic responses; oral administration): significantly ameliorated |
| CO[C@H](c1cc(C(F)(F)F)nc2c(C(F)(F)F)cccc12)[C@@H]1CCCCN1C [Example 8, (11R, 2′S)-4-(1-Methoxy-1-(1-methyl-2-piperidinyl)methyl)-2,8-bis(trifluoromethyl)quinoline] | 419 | – |
| O=C1CO[C@H](c2cc(C(F)(F)F)nc3c(C(F)(F)F)cccc23)[C@@H]2CCCCN12 [Example 14, (1R, 9aS)-1,3,4,6,7,8,9,9a-Octahydro-1-(2,8-bis(trifluoromethyl)-4-quinolinyl)-pyrido[2,1-c][1,4]oxazine-4-one] | 1780 | – |
| OC(CNCc1ccccc1)c1cc(C(F)(F)F)nc2c(C(F)(F)F)cccc12 (stereo not drawn) [Example 24, α-Benzylaminomethyl-2,8-bis(trifluoromethyl)-4-quinolinemethanol] | 2450 | – |
| OC(CN1CCCCC1)c1cc(C(F)(F)F)nc2c(C(F)(F)F)cccc12 (stereo not drawn) [Example 20, α-Piperidinomethyl-2,8-bis(trifluoromethyl)-4-quinolinemethanol] | – | melting point: 129.5 °C |
| Nc1cc([C@@H](O)[C@@H]2CCCCN2)c2ccccc2n1 (relative stereo) (as salt: salt) | – | melting point: 225 °C (dec.) |
| COC(CNCc1ccccc1)c1cc(C(F)(F)F)nc2c(C(F)(F)F)cccc12 (stereo not drawn) (as salt: hydrochloride) [Example 30, N-Benzyl-β-methoxy-2,8-bis(trifuoromethyl)-4-quinolineethanamine Hydrochloride] | – | melting point: 232 to 233 °C |
| Cn1c(=O)c2[nH]cnc2n(C)c1=O [Theophylline, 1,3-dimethylxanthine] | – | mean objective disability scores (Parkinsonian patients; 15 Parkinsonian patients, up to 12 weeks, 150 mg/day): significant improvements; patients reporting moderate or marked subjective improvement (Parkinsonian patients; of 15 Parkinsonian patients, up to 12 weeks, 150 mg/day): 11; serum theophylline levels (Parkinsonian patients; slow release oral preparation 150 mg/day, after one week): 4.44 mg/L |
| CN1CCCC[C@H]1[C@H](O)c1cc(C(F)(F)F)nc2c(C(F)(F)F)cccc12 [Example 7, (11R, 2′S)-α-(1-Methyl-2-piperidinyl)-2,8-bis(trifluoromethyl)-4-quinolinemethanol] | 45 | – |
| OC1(c2cc(C(F)(F)F)nc3c(C(F)(F)F)cccc23)CNC1 [Example 31, 3-(2,8-Bis(Trifluoromethyl)-4-quinolinyl)-3-azetidinol] | – | melting point: 201 °C (dec.) |
| CO[C@H](c1cc(C(F)(F)F)nc2c(C(F)(F)F)cccc12)[C@@H]1CCCCN1 [Example 32, (1′R, 2S)-2-(α-Methoxy-2,8-bis(trifluoromethyl)-4-quinolinemethyl)piperidine Hydrochloride] | 226 | – |

| SMILES | Ki [1] [nM] | also measured |
| --- | --- | --- |
| FC(F)(F)c1cc([C@H]2OCN3CCCC[C@H]23)c2cccc(C(F)(F)F)c2n1 [Example 13, (1R, 8aR)-1,5,6,7,8,8a-Hexahydro-1-(2,8-bis(trifluoromethyl)-4-quinolinyl)-3H-oxazolo[3,4-a]pyridine] | 192 | – |
| O[C@H](c1cc(C(F)(F)F)nc2c(C(F)(F)F)cccc12)[C@@H]1CCCN1 [Example 42, (11R, 2′S)-α-(2-pyrrolidinyl)-2,8-bis(trifuoromethyl)-4-quinolinemethanol Hydrochloride] | 462 | – |
| O[C@@H](c1cc(C(F)(F)F)nc2ccccc12)[C@H]1CCCCN1 (racemic) [Example 39, (11S*, 2′R*)-α-(2-Piperidinyl)-2-trifluoromethyl-4-quinolinemethanol (Racemic)] | 404 | – |
| OC(CNC1CCC1)c1cc(C(F)(F)F)nc2c(C(F)(F)F)cccc12 (stereo not drawn) [Example 26, α-Cyclobutylaminomethyl-2,8-bis(trifluoromethyl)-4-quinolinemethanol] | 2800 | – |
| O[C@H](c1cc(C(F)(F)F)nc2c(C(F)(F)F)cccc12)[C@@H]1CCCN1 (as salt: hydrochloride) [Example 42, (11R, 2′S)-α-(2-pyrrolidinyl)-2,8-bis(trifuoromethyl)-4-quinolinemethanol Hydrochloride] | – | melting point: 230 °C (dec.) |
| FC(F)(F)c1cc([C@H]2OCCN3CCCC[C@@H]23)c2cccc(C(F)(F)F)c2n1 [Example 15, (1R, 9aS)-1,3,4,6,7,8,9,9a-Octahydrol-(2,8-bis(trifluoromethyl)-4-quinolinyl)-pyrido[2,1-c][1,4]oxazine] | 1170 | – |
| O[C@@H](c1cc(C(F)(F)F)nc2ccccc12)[C@H]1CCCCN1 (relative stereo) [Example 39, (11S*, 2′R*)-α-(2-Piperidinyl)-2-trifluoromethyl-4-quinolinemethanol (Racemic)] | – | reversal of haloperidol-induced hypolocomotion [2]: significantly reversed |
| CC(C)CNCC(O)c1cc(C(F)(F)F)nc2c(C(F)(F)F)cccc12 (stereo not drawn) [Example 25, α-Isobutylaminomethyl-2,8-bis(trifluoromethyl)-4-quinolinemethanol] | 1270 | – |
| OC(CNc1ccccc1)c1cc(C(F)(F)F)nc2c(C(F)(F)F)cccc12 (stereo not drawn) [Example 23, α-Phenylaminomethyl-2,8-bis(trifluoromethyl)-4-quinolinemethanol] | 2730 | – |
| Cc1cccc2c([C@@H](O)[C@@H]3CCCCN3)cc(O)nc12 (relative stereo) | – | melting point: 225 °C (dec.) |
| CC[C@H](C)[C@H](N)[C@@H](O)c1cc(C(F)(F)F)nc2c(C(F)(F)F)cccc12 [Example 40, (11S, 1′S, 2′S)-α-(1-Amino-2-methyl-1-butyl)-2,8-bis(trifluoromethyl)-4-quinolinemethanol Hydrochloride] | 609 | – |
| O[C@@H](c1cc(C(F)(F)F)nc2c(C(F)(F)F)cccc12)[C@@H]1CCCN1 [Example 45, (11S, 2′S)-α-(2-Pyrrolidinyl)-2,8-bis(trifluoromethyl)-4-quinolinemethanol Hydrochloride] | 2060 | – |
| FC(F)(F)c1cc([C@H]2OCN3CCCC[C@@H]23)c2cccc(C(F)(F)F)c2n1 [Example 11, (1R, 8aS)-1,5,6,7,8,8a-Hexahydro-1-(2,8-bis(trifluoromethyl)-4-quinolinyl)-3H-oxazolo[3,4-a]pyridine] | 63 | – |
| OC(CN1CCOCC1)c1cc(C(F)(F)F)nc2c(C(F)(F)F)cccc12 (stereo not drawn) [Example 18, α-Morpholinomethyl-2,8-bis(trifluoromethyl)-4-quinolinemethanol] | – | melting point: 129 to 130 °C |
| O[C@H](c1cc(C(F)(F)F)nc2c(C(F)(F)F)cccc12)[C@@H]1CCCCN1CCc1ccccc1 [Example 38, (11S, 2′R)-α-(1-Phenethyl-2-piperidinyl)-2,8-bis(trifluoromethyl)-4-quinolinemethanol] | 906 | – |
| CNCC(O)c1cc(C(F)(F)F)nc2c(C(F)(F)F)cccc12 (stereo not drawn) [Example 22, α-Methylaminomethyl-2,8-bis(trifluoromethyl)-4-quinolinemethanol] | 1500 | – |
